The source of these data is US20200397749A1, “COMPOSITIONS AND METHODS FOR TREATING ACUTE CANNABINOID OVERDOSE WITH A CANNABINOID RECEPTOR ANTAGONIST” (Opiant Pharmaceuticals, Inc., priority 2019, published 2020).

Data set [1] is described as follows: Solubility of drinabant in excipients. The class given is physicochemical. The protocol: Drinabant may be added to a fixed volume of aqueous solution with and without various amounts of water soluble carriers such as Solutol HS 15 in screw capped bottles. […] Filtered solutions are then analyzed for drinabant concentration using an appropriate method such as UV/visible spectrophotometry at an appropriate wavelength (nm) or by HPLC.
Two different categories of excipients, described in the literature as injectable intravenously, were tested for the solubility of drinabant:
(§1) The chemical composition of the selected excipients, as well the solubility of drinabant, are renorted in the table below.

For data set [2] the following is noted: cited from earlier work.
Data set [3] in a line: Stability at RT of drinabant in the saturated solution. The class given is physicochemical.
From the text: as §1

One may read the Tmax as the time at which the peak concentration occurs. In the case of `CS(=O)(=O)N(c1cc(F)cc(F)c1)C1CN(C(c2ccc(Cl)cc2)c2ccc(Cl)cc2)C1` [drinabant], the drinabant solubility in data set [1] (in Cremophor EL (POE hydrogenated castor oil)) was 49.4 mg/g; in data set [1] (in Glycerol), <<0.0001 mg/g; in data set [1] (in Glycofurol), 139.4 mg/g; in data set [1] (in PEG 400) it was 50 mg/g; in data set [1] (in PS80 VG (POE monooleate)) it was 48.8 mg/g; in data set [1] (in Propylene glycol) it was 7 mg/g. This compound had a drinabant solubility in data set [1] (in Solutol HS15 (PEG hydroxystearate), at 40° C.) of 64.6 mg/g. Further, in data set [2] (oral drinabant), the Tmax was over 3 h. The safety and tolerability result in data set [2] (oral, up to 240 mg up to 3 weeks (Phase I), 60 mg up to 24 weeks (Phase II)) was “safe and well tolerated”. The “Stability at RT of drinabant in the saturated solution” value in data set [3] (in Cremophor EL), in data set [3] (in PS80 VG) and in data set [3] (in Solutol HS15) was “Stable” throughout.
